From article PMC9555310, “Novel inhibitors and activity-based probes targeting serine proteases” (Frontiers in Chemistry, 2022)

Key:
[1] = target: T1, trypsin (Sus scrofa, UniProt P00761); assay: Off-target study, residual activity after 2 min pre-incubation: trypsin; type: biochemical, porcine; details: 2 min incubation, PBS pH 7.4, 37°C, residual activity vs DMF control
T1 construct: purchased Sigma-Aldrich; host or cells: porcine pancreas
Protocol: FIGURE 5 Results of “off-target“ studies. NAP849 (A), NAP800 (B) and NAP830 (C) were tested against trypsin, chymotrypsin, and NE. Samples (approx. 0.01 μg) of each protease were incubated with the indicated concentrations of test compound for 2 min, in PBS, pH 7.4, at 37°C. (D) NAP858, NAP962 and NAP849 were tested against cathepsin B at the indicated concentrations in 0.1 M MES, pH 6.1, containing 1 mM EDTA, for 2 min, at 37°C. Aliquots (approx. 10 μL) of each incubation sample were then added to a fresh sample (990 μL) of PBS for the serine proteases and MES for cathepsin B, containing the appropriate substrate for each protease, to measure their residual activity. Controls incubations were performed in the absence of test compound, but in the presence of an appropriate volume of DMF vehicle used to prepare stock solutions of each inhibitor under study. […]
For assays requiring a pre-incubation step enzyme and inhibitor in assay buffer were incubated together, at 37 °C, for 2 min, with gentle agitation. […] The fluorescence production was then measured as described for the previous procedure.

[2] = target: T2, plasmin (Homo sapiens, UniProt P00747); assay: Irreversible inhibition kinetics of plasmin (fluorogenic substrate progress curves); type: biochemical; details: PBS pH 7.4, 37°C, mean ± SD (n=2); for Ki: Boc-Val-Leu-Lys-NHMec 50 μM; for k 3: first-order rate constant; for k 3 / K i: second-order rate constant of inactivation
T2 construct: purchased Sigma-Aldrich (supplement); R&D Systems; host or cells: human plasma
Protocol: A range of inhibitor concentrations were prepared from a 10 mM stock solution of the test compounds (NAP533, NAP559, NAP800, NAP830, NAP849, and NAP962) in N, N-dimethylformamide (DMF). Recombinant protease activities were assayed using the cognate fluorogenic substrates as follows: trypsin (Z-Gly-Gly-Arg-NHMec), thrombin (Boc-Val-Pro-Arg-NHMec), plasmin (Boc-Val-Leu-Lys-NHMec), human neutrophil elastase (MeO-Succinyl-Ala-Ala-Pro-Val-NHMec), and chymotrypsin (Succinyl-Ala-Ala-Pro-Phe-NHMec). Each substrate was used at a final concentration of 50 μM, in the appropriate buffer for each protease. All inhibition assays were performed in microtiter plates maintained at 37°C in a final volume of 100 μL. The reaction was initiated by the addition of each protease (approx. 0.01 μg/well) and the rate of substrate hydrolysis was recorded continuously at 37°C, over a 60 min period, by measuring the rate of increase in fluorescence (at λex 360 nm, λem 480 nm) using a FLUOstar Optima microplate reader (BMG Labtech).
The resultant inhibition progress curves obtained for each inhibitor were analyzed by the kinetic models developed by [Tian and Tsou (1982)] and [Walker and Elmore (1984)], for irreversible inhibitors, with curve fitting being achieved using GraFit (Erithacus Software), as described previously ([Ferguson et al., 2016]).
FIGURE 4 Progress curves for (A), chymotrypsin-catalysed hydrolysis of Succinyl-Ala-Ala-Pro-Phe-NHMec, in the presence of varying concentrations of NAP849. (B), NE-catalysed hydrolysis of MeO-succinyl-Ala-Ala-Pro-Val-NHMec, in the presence of varying concentrations of NAP800. (C) Trypsin-catalysed of Z-Gly-Gly-Arg-NHMec, in the presence of NAP830. (D) Plasmin-catalysed hydrolysis of Boc-Val-Leu-Lys-NHMec, in the presence of varying concentrations of NAP962. Assays were carried out in PBS, pH 7.4, at 37°C, in the presence of a range of inhibitor concentrations (0.25–50 μM) and a fixed concentration (50 μM) of the appropriate substrate for each protease.
The “product progress” curves for substrate hydrolysis in the presence of an inhibitor (Figure 4) are indicative of the action of irreversible inhibitors operating through the kinetic scheme illustrated in Figure 6. In this scheme, the formation of the reversible enzyme–inhibitor complex (EI) is zcharacterized by the inhibitor constant K i. This is converted into the covalent/irreversible complex (E-I) characterized by a first-order rate constant k 3. The overall second-order rate constant for the inactivation of E by I is given by the ratio k 3/K i ([Walker and Elmore, 1984]; [Tsou, 1988]).
Fluorogenic enzyme assays were carried out on a FLUOstar OPTIMA spectro-fluorimeter (BMG Labtech) with analysis performed on MARS Data Analysis Software (BMG Labtech). Black 96-well microtitre plates were supplied by Thermo Scientific. Trypsin from porcine pancreas, plasmin from human plasma and chymotrypsin from bovine pancreas were obtained from Sigma-Aldrich. Thrombin and Cathepsin B were supplied by R and D Systems. Human Neutrophil Elastase was supplied by Calbiochem. Fluorogenic substrates Z-Gly-Gly-Arg-NHMec, Succinyl-Ala-Ala-Pro-Phe-NHMec and MeO-Succinyl-Ala-Ala-Pro-Val-NHMec were supplied by Sigma-Aldrich. Boc-Val-Pro-Arg-NHMec was obtained from R and D Systems and Boc-Val-Leu-Lys-NHMec was supplied by PeptaNova. Phosphate Buffered Saline tablets were acquired from Sigma- Aldrich.
Protease inactivation by each of the compounds under study was evaluated using a fluorogenic enzyme assays. Protease-substrate combinations used as detailed in Section 2. Inhibitors were made up as 10 mM stock solutions in either DMF or DMSO, then diluted with PBS (pH 7.4) to give appropriate working concentrations. A final volume of 100 μL was used per well. Substrate (50 μM final concentration) was added to a black 96-well microtitre plate (Thermo Scientific), in duplicate, followed by addition of inhibitor, in such a manner to give the required final concentration. […]

T2 sequence (P00747 581-810 limits assumed): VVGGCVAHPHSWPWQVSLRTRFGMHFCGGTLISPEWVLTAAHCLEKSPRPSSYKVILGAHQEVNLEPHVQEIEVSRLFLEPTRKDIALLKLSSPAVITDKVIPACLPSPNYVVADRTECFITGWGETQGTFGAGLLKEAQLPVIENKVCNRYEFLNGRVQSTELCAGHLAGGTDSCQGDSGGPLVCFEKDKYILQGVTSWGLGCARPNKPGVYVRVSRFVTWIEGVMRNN
T2 sequence (P00747 97-580 partner limits assumed): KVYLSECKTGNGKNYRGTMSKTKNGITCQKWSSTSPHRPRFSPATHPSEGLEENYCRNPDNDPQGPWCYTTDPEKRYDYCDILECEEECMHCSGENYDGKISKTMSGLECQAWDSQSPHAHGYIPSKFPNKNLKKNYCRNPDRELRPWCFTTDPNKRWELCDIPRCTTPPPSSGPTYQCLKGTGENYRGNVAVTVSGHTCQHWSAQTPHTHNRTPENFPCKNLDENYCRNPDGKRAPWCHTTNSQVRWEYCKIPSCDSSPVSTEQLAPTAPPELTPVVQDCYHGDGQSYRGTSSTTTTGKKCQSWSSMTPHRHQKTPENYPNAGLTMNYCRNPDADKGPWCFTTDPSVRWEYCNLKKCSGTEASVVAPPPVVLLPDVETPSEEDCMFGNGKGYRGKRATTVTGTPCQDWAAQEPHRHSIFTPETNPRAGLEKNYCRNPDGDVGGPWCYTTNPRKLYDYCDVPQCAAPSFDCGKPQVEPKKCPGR
T1 sequence (P00761 9-231): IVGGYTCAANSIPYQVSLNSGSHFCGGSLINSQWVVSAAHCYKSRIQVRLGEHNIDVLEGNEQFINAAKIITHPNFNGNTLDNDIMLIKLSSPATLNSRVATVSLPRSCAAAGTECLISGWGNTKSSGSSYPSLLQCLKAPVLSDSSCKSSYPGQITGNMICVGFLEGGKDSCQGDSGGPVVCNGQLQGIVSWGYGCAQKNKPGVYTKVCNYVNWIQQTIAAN

CC(C)N(CC(=O)NCC(=O)NCC(=O)NCCCOCCOCCOCCCNC(=O)CCCCC1SCC2NC(=O)NC21)C(=O)ON1C(=O)CCC1=O (stereo not drawn) [NAP800, Succinimidoyl-CO-NVal-Gly-Gly-PEG-Biotin]
off-target inhibition of trypsin [1]: no “off-target” or collateral inhibition

NCCCCN(CC(=O)NCC(=O)NCC(=O)NCCCOCCOCCOCCCNC(=O)CCCCC1SCC2NC(=O)NC21)C(=O)ON1C(=O)CCC1=O (stereo not drawn) [NAP830, Succinimidoyl-CO-NLys-Gly-Gly-PEG-Biotin]
Ki [2]: 7.2 µM | k 3 [2]: 0.4 (± 0.05) min^−1 | k 3 / K i [2]: 6.2 (± 0.9) × 10^4 M^−1 min^−1

O=C(CCCCC1SCC2NC(=O)NC21)NCCCOCCOCCOCCCNC(=O)CNC(=O)CNC(=O)CN(Cc1ccccc1)C(=O)ON1C(=O)CCC1=O (stereo not drawn) [NAP849, Succinimidoyl-CO-NPhe-Gly-Gly-PEG-Biotin]
off-target inhibition of trypsin [1]: complete absence of inhibition

CC(C)N(CC(=O)NCCCOCCOCCOCCCNC(=O)CCCCC1SCC2NC(=O)NC21)C(=O)CN(Cc1ccccc1)C(=O)CN(CCCCN)C(=O)ON1C(=O)CCC1=O (centres unmarked) [NAP962, Succinimidoyl-CO-NLys-NPhe-NVal-PEG-Biotin]
Ki [2]: 4.2 µM | k 3 [2]: 0.6 (± 0.1) min^−1 | k 3 / K i [2]: 1.4 (± 0.3) × 10^5 M^−1 min^−1
